Patent US4241069A, “3-Methylene flavanones and 3-methylene chromanones” (Miles Laboratories, Inc., priority 1979, dated 1980)
≈ marks a conversion by molar mass, not a printed value.

Tests used:
[1] = test system: Aspergillus niger ATCC 16404; experiment: MIC, agar incorporation method; format: cell-based; conditions: ATCC16404, 32° C., 48-72 hours, read-out: Minimal Inhibitory Concentration
Protocol: (§1) The compounds of the present invention were tested for their ability to inhibit the growth of microorganisms by in vitro tests. Generally the in vitro tests involve growing representative microorganisms under conditions favorable to such growth and measuring the effectiveness of one or more compounds in inhibiting or destroying the growth of the microorganisms. The microorganisms used include representative bacteria, fungi and yeasts.
(§2) A representative selection of the test microorganisms were cultured in a nutrient broth, such as, for example, Eugon, commercially available from Difco Laboratories, Detroit, Michigan. Bacteria and Candida species were cultured for 24 hours at 32°-37° C. and fungi were cultured for approximately one week at 32° C. Inocula were prepared by suspending the growth or spores from a slant culture in sufficient sterile normal (0.9 percent) saline or Eugon broth, to yield cell or spore concentrations of 1,000,000 cells per milliliter. Anaerobic bacteria were cultured for 48-72 hours at 32°-37° C. in a thioglycollate containing medium, for example, Fluid Thioglycollate medium or NIH thioglycollate broth, commercially available from Difco Laboratories.
(§3) The compounds of the present invention were tested for activity against bacteria, yeasts and fungi by the agar incorporation method described below. MA 1347, 3-(dimethylaminomethyl)flavanone (disclosed in U.S. Pat. No. 3,753,985) was used as a comparative standard along with controls for each solvent system used.
(§4) A series of agar plates containing two-fold dilutions of each compound to be tested, ranging in concentration from 100 to 3.1 mcg/ml of agar medium was prepared. Aliquots of each concentration (100, 50, 25, 12.5, 6.2, and 3.1) prepared in N,N-dimethylformamide or 50 percent aqueous DMF were added to liquid Eugon agar at 48° C. (one part test solution to 100 parts agar). In some cases, tests with further dilutions to 0.125 mcg/ml were conducted. The agar medium, containing the 3-methylene flavanone or chromanone compound to be tested, was then dispensed into petri dishes and allowed to solidify. The solidified plates were kept overnight at room temperatures to dry the surface of the agar.
(§5) The agar plates were then inoculated with a drop of the standardized cell or spore suspension. Inoculated plates were incubated at 32° C. The inhibition end-point or minimum inhibitory concentration (MIC) shown in Table D represent the lowest concentration of test compound which inhibited the growth of the microorganism. Visual determination of growth inhibition was used. Bacteria and yeast end-points were determined after 24 hours incubation; molds, dermatophytes and anaerobes after 48-72 hours incubation. MIC values shown as ranges represent the extremes found in repeat assays. Virtually all such values were written plus or minus one dilution, the accepted variation of a two-fold dilution assay.

[2] = test system: C. guillermondii VM 42; experiment: MIC, agar incorporation method; format: cell-based; conditions: 32° C., 24 hours; read-out: Minimal Inhibitory Concentration
Protocol: as §1, §2, §3, §4, §5

[3] = test system: C. krusei VM 29B; experiment: MIC, agar incorporation method; format: cell-based; conditions: Pichia kudriavzevii, VM29B; 32° C., 24 hours; read-out: Minimal Inhibitory Concentration
Protocol: as §1, §2, §3, §4, §5

[4] = test system: C. tropicalis NRRL Y1410; experiment: MIC, agar incorporation method; format: cell-based; conditions: Candida tropicalis, NRRLY1410; 32° C., 24 hours; read-out: Minimal Inhibitory Concentration
Protocol: as §1, §2, §3, §4, §5

[5] = test system: Escherichia coli ATCC 8739; experiment: MIC, agar incorporation method; format: cell-based; conditions: ATCC8739, 32° C., 24 hours, read-out: Minimal Inhibitory Concentration
Protocol: as §1, §2, §3, §4, §5

[6] = test system: Microsporum gypseum ATCC 14683; experiment: MIC, agar incorporation method; format: cell-based; conditions: Nannizzia gypsea, ATCC14683, 32° C., 48-72 hours; read-out: Minimal Inhibitory Concentration
Protocol: as §1, §2, §3, §4, §5

[7] = test system: Pseudomonas aeruginosa ATCC 14502; experiment: MIC, agar incorporation method; format: cell-based; conditions: ATCC14502, 32° C., 24 hours, read-out: Minimal Inhibitory Concentration
Protocol: as §1, §2, §3, §4, §5

[8] = test system: Staphylococcus aureus ATCC 6538; experiment: MIC, agar incorporation method; format: cell-based; conditions: Staphylococcus aureus, ATCC6538; S. aureus ATCC 6538; 32° C., 24 hours; read-out: Minimal Inhibitory Concentration
Protocol: as §1, §2, §3, §4, §5

[9] = test system: Streptococcus faecalis ATCC 10541; experiment: MIC, agar incorporation method; format: cell-based; conditions: Enterococcus faecalis, ATCC10541; 32° C., 24 hours; read-out: Minimal Inhibitory Concentration
Protocol: as §1, §2, §3, §4, §5

[10] = test system: T. mentagrophytes CDC; experiment: MIC, agar incorporation method; format: cell-based; conditions: Trichophyton mentagrophytes, 32° C., 48-72 hours, read-out: Minimal Inhibitory Concentration
Protocol: as §1, §2, §3, §4, §5

[11] = test system: T. mentagrophytes TM-2; experiment: MIC, agar incorporation method; format: cell-based; conditions: Trichophyton mentagrophytes, TM2, 32° C., 48-72 hours, read-out: Minimal Inhibitory Concentration
Protocol: as §1, §2, §3, §4, §5

[12] = test system: T. rubrum ATCC 10218; experiment: MIC, agar incorporation method; format: cell-based; conditions: Trichophyton rubrum, ATCC10218; 32° C., 48-72 hours; read-out: Minimal Inhibitory Concentration
Protocol: as §1, §2, §3, §4, §5

[13] = test system: Trichophyton mentagrophytes ATCC 4807; experiment: MIC, agar incorporation method; format: cell-based; conditions: ATCC4807, 32° C., 48-72 hours, read-out: Minimal Inhibitory Concentration
Protocol: as §1, §2, §3, §4, §5

[14] = test system: S. aureus NRRL B2747; experiment: MIC, agar incorporation method; format: cell-based, Staphylococcus aureus; conditions: Staphylococcus aureus, NRRLB2747, 32° C., 24 hours, read-out: Minimal Inhibitory Concentration
Protocol: as §1, §2, §3, §4, §5

[15] = test system: Propionobacterium acnes ATCC 6919; experiment: MIC, agar incorporation method, anaerobic; format: cell-based; conditions: 48 hours at 35° C., GasPak Anaerobic Jar, read-out: Minimal Inhibitory Concentration
Protocol: as §1, §2, §3, §4, §5
*Anaerobic: 48 hours incubation at 35° C. GasPak Anaerobic Jar

[16] = test system: A. fumigatus NRRL 165; experiment: MIC, agar incorporation method; format: cell-based; conditions: Aspergillus fumigatus, NRRL165, 32° C., 48-72 hours, read-out: Minimal Inhibitory Concentration
Protocol: as §1, §2, §3, §4, §5

[17] = test system: C. albicans NRRL Y-477; experiment: MIC, agar incorporation method; format: cell-based; conditions: Candida albicans, NRRLY477, 32° C., 24 hours, read-out: Minimal Inhibitory Concentration
Protocol: as §1, §2, §3, §4, §5

[18] = test system: Candida albicans ATCC 10231; experiment: MIC, agar incorporation method; format: cell-based; conditions: ATCC10231, C. albicans ATCC 10231, 32° C., 24 hours, read-out: Minimal Inhibitory Concentration
Protocol: as §1, §2, §3, §4, §5

[19] = test system: A. fumigatus NRRL 163; experiment: MIC, agar incorporation method; format: cell-based; conditions: Aspergillus fumigatus, NRRL163, NRRL 163; 32° C., 48-72 hours; read-out: Minimal Inhibitory Concentration
Protocol: as §1, §2, §3, §4, §5

SMILES | MIC [1] [µg/mL] | MIC [2] [µg/mL] | MIC [3] [µg/mL] | MIC [4] [µg/mL] | MIC [5] [µg/mL] | MIC [6] [µg/mL] | MIC [7] [µg/mL] | MIC [8] [µg/mL] | MIC [9] [µg/mL] | MIC [10] [µg/mL] | MIC [11] [µg/mL] | MIC [12] [µg/mL] | MIC [13] [µg/mL] | MIC [14] [µg/mL] | MIC [15] [µg/mL] | MIC [16] [µg/mL] | MIC [17] [µg/mL] | MIC [18] [µg/mL] | MIC [19] [µg/mL]
C=C1C(=O)c2ccccc2OC1c1cccc2ccccc12 (centres unmarked) [Ex. 23, 3-methylene-2-(1-naphthyl) chromanone] | > 100 | > 100 | 50 (≈ 175 µM) | > 100 | > 100 | 6.2 (≈ 21.7 µM) | > 100 | ≤ 3.1 | 50 (≈ 175 µM) | 12.5 (≈ 43.7 µM) | 12.5 (≈ 43.7 µM) | 6.2 (≈ 21.7 µM) | 6.2 (≈ 21.7 µM) | 6.2 (≈ 21.7 µM) |  | > 100 | 100 (≈ 349 µM) | > 100 | 
C=C1C(=O)c2ccccc2OC1c1cccc([N+](=O)[O-])c1 (centres unmarked) [compound 9, 3'-nitro-3-methylene flavanone] | 50 (≈ 178 µM) | 100 (≈ 356 µM) | 50 (≈ 178 µM) | 50 (≈ 178 µM) | > 100 | 6.2 (≈ 22 µM) | > 100 | 6.2 (≈ 22 µM) | 50 (≈ 178 µM) | 12.5 (≈ 44.4 µM) | 6.2 (≈ 22 µM) | 6.2 (≈ 22 µM) | 12.5 (≈ 44.4 µM) | 6.2 (≈ 22 µM) |  | 100 (≈ 356 µM) | 50 (≈ 178 µM) | 50 (≈ 178 µM) | 
C=C1C(=O)c2cc(C)ccc2OC1c1ccccc1 (centres unmarked) [compound 19, 6-methyl-3-methylene flavanone] | 25 (≈ 99.9 µM) | 25 (≈ 99.9 µM) | 25 (≈ 99.9 µM) | 25 (≈ 99.9 µM) | > 100 | 6.2 (≈ 24.8 µM) | > 100 | 6.2 (≈ 24.8 µM) | 50 (≈ 200 µM) | 6.2 (≈ 24.8 µM) | 6.2 (≈ 24.8 µM) | 6.2 (≈ 24.8 µM) | 6.2 (≈ 24.8 µM) | 6.2 (≈ 24.8 µM) | ≤ 100 |  | 25 (≈ 99.9 µM) | 25 (≈ 99.9 µM) | 25 (≈ 99.9 µM)

Next, values leading:

MIC [1] [µg/mL] | MIC [2] [µg/mL] | MIC [3] [µg/mL] | MIC [4] [µg/mL] | MIC [5] [µg/mL] | MIC [6] [µg/mL] | MIC [7] [µg/mL] | MIC [8] [µg/mL] | MIC [9] [µg/mL] | MIC [10] [µg/mL] | MIC [11] [µg/mL] | MIC [12] [µg/mL] | MIC [13] [µg/mL] | MIC [14] [µg/mL] | MIC [15] [µg/mL] | MIC [16] [µg/mL] | MIC [17] [µg/mL] | MIC [18] [µg/mL] | MIC [19] [µg/mL] | SMILES
100 (≈ 342 µM) | > 100 | 50 (≈ 171 µM) | > 100 | > 100 | 12.5 to 25 (≈ 42.8 to 85.5 µM) | > 100 | ≤ 3.1 | 25 to 50 (≈ 85.5 to 171 µM) | 25 (≈ 85.5 µM) | 25 (≈ 85.5 µM) | 12.5 to 25 (≈ 42.8 to 85.5 µM) | 25 (≈ 85.5 µM) | 3.1 to 6.2 (≈ 10.6 to 21.2 µM) | ≤ 100 |  |  |  |  | C=C1C(=O)c2ccccc2OC1c1ccc(C(C)(C)C)cc1 (centres unmarked) [Ex. 14, 4'-t-butyl-3-methylene flavanone]
100 (≈ 369 µM) | 50 (≈ 185 µM) | 25 (≈ 92.3 µM) | 50 (≈ 185 µM) | > 100 | 6.2 (≈ 22.9 µM) | > 100 | ≤ 3.1 | 25 (≈ 92.3 µM) | 12.5 (≈ 46.2 µM) | 6.2 (≈ 22.9 µM) | ≤ 3.1 | 6.2 (≈ 22.9 µM) | 6.2 (≈ 22.9 µM) |  | 100 (≈ 369 µM) | 25 (≈ 92.3 µM) | 25 (≈ 92.3 µM) |  | C=C1C(=O)c2ccccc2OC1c1cccc(Cl)c1 (centres unmarked) [Ex. 2, 3'-chloro-3-methylene flavanone]
50 (≈ 191 µM) | 100 (≈ 383 µM) | 50 (≈ 191 µM) | 50 (≈ 191 µM) | > 100 | 12.5 (≈ 47.8 µM) | > 100 | 12.5 (≈ 47.8 µM) | 100 (≈ 383 µM) | 25 (≈ 95.7 µM) | 12.5 (≈ 47.8 µM) | 6.2 (≈ 23.7 µM) | 12.5 (≈ 47.8 µM) | 12.5 (≈ 47.8 µM) |  | 100 (≈ 383 µM) | 50 (≈ 191 µM) | 50 (≈ 191 µM) |  | C=C1C(=O)c2ccccc2OC1c1ccc(C#N)cc1 (centres unmarked) [Ex. 16, 4'-cyano-3-methylene flavanone]
